Measured values reported in ChEMBL document CHEMBL1201862, “PubChem BioAssay data set” (2004).
Active and inactive are the calls of the source. Rule as the data show it, for most assays here: actives have a measured EC50 and inactives only a lower limit.

Tests used:
[1] = molecular target: Heat shock protein HSP 90-alpha (Homo sapiens, UniProt P07900); format: functional, organism-based
Beta-galactosidase = Beta-galactosidase (Escherichia coli, UniProt Q8VNN2); assay: PubChem AID 485352; format: functional
BJ [2] = assay: cells; format: functional, cell-based; conditions: Homo sapiens
[3] = test system: Streptococcus sp. 'group A'; assay: growth inhibition of control SK(-) GAS strain, dose response, counter-screen for streptokinase expression inhibitor project, luminescence, kanamycin, BacTiterGlo, confirmation (AID 1900); format: functional, organism-based
[4] = cytotoxicity toward DRD oncogenic fibroblasts, dose response, cell-based, non-viral oncogenic, luminescence (AID 1934); format: functional; conditions: Homo sapiens
BJ [5] = assay: cytotoxicity toward BJ-TERT-LT-ST fibroblasts, dose response, cell-based, RAS-independent, luminescence (AID 1935); format: functional; conditions: Homo sapiens;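 also: BJ fibroblasts immortalized with TERT plus LT and ST oncogenes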
BJ [6] = assay: cytotoxicity toward BJ-TERT fibroblasts, dose response, cell-based, RAS-independent, luminescence (AID 1933); format: functional; conditions: Homo sapiens
Streptococcus = assay: Group A Streptococcus viability loss, dose response, counter-screen for streptokinase expression inhibitor project, luminescence, BacTiterGlo (AID 1915); format: functional, organism-based;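 also: potency for reduction of bacterial viability or growth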
[7] = molecular target: T1, Type-1 angiotensin II receptor (Homo sapiens, UniProt P30556); assay: AT1 receptor antagonists, dose response, selectivity assay for APJ receptor antagonist project, cell-based, uHTS hits (AID 463214); format: functional;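 also: antagonist potency against angiotensin II stimulated AT1 response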
T1 sequence (P30556 whole entry): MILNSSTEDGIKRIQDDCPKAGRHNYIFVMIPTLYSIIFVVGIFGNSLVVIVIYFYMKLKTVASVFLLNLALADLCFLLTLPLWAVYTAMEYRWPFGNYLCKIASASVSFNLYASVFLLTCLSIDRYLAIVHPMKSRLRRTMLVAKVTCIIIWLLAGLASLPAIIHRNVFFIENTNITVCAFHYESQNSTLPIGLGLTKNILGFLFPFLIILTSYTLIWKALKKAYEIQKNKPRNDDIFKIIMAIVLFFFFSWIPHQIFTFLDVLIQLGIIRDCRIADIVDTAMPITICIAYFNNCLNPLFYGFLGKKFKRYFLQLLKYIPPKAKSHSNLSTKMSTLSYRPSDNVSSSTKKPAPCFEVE

[8] = molecular target: T2, Carboxy-terminal domain RNA polymerase II polypeptide A small phosphatase 1 (Homo sapiens, UniProt Q9GZU7); assay: inhibitors of CTDSP1, concentration-response testing, biochemical assay, absorbance-based, actives from ultra-high-throughput screening (AID 540297); format: functional
T2 sequence (Q9GZU7 whole entry): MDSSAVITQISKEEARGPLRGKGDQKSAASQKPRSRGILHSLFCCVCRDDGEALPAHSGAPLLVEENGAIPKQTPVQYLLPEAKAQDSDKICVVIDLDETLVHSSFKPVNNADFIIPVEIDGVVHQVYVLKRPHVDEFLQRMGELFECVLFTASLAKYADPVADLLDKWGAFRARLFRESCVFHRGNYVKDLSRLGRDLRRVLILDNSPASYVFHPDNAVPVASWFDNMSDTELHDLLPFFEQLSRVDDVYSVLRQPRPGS

Fatty acid synthase [9] = molecular target: T3, Fatty acid synthase (Homo sapiens, UniProt P49327); assay: FAS thioesterase domain inhibitors, dose response, biochemical, endpoint fluorescence intensity, uHTS hits (AID 624327); format: functional;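 also: fluorescence from hydrolysis of an O-methyl fluorescein acyl ester substrate by the enzyme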
Fatty acid synthase [10] = molecular target: T3, Fatty acid synthase; assay: FAS thioesterase domain inhibitors, dose response, biochemical, kinetic fluorescence intensity (AID 624326); format: functional;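 also: rate of fluorescence rise from hydrolysis of a fluorogenic O-methyl fluorescein ester substrate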

Chain of Beta-galactosidase (Q8VNN2 whole entry): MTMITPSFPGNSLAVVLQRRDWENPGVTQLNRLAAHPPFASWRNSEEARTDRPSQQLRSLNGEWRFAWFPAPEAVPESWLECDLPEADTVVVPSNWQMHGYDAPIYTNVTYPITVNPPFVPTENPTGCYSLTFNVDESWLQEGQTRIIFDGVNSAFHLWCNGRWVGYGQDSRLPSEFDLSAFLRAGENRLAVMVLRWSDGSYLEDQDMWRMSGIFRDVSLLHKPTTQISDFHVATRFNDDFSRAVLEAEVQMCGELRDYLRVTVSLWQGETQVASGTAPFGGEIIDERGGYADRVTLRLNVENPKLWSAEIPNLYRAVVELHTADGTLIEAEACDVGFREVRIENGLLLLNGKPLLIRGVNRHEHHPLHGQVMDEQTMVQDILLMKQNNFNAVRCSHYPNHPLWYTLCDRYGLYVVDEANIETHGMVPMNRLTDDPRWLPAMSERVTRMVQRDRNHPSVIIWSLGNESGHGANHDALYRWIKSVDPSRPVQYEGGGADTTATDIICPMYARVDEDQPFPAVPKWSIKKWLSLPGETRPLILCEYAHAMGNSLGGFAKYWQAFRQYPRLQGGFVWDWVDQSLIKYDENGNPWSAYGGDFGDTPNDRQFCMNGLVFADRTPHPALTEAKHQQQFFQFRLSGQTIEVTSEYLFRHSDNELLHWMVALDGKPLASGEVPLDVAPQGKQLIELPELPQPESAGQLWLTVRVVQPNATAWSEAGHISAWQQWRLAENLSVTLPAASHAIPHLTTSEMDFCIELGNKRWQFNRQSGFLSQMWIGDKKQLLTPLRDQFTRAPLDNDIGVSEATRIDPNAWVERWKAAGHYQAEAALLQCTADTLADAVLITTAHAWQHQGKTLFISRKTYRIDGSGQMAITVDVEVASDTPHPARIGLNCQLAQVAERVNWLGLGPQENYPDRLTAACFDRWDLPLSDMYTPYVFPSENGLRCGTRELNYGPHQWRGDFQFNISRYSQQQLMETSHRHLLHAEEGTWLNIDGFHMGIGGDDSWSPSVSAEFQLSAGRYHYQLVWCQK
T3 sequence (P49327 whole entry, the tested form may be a part): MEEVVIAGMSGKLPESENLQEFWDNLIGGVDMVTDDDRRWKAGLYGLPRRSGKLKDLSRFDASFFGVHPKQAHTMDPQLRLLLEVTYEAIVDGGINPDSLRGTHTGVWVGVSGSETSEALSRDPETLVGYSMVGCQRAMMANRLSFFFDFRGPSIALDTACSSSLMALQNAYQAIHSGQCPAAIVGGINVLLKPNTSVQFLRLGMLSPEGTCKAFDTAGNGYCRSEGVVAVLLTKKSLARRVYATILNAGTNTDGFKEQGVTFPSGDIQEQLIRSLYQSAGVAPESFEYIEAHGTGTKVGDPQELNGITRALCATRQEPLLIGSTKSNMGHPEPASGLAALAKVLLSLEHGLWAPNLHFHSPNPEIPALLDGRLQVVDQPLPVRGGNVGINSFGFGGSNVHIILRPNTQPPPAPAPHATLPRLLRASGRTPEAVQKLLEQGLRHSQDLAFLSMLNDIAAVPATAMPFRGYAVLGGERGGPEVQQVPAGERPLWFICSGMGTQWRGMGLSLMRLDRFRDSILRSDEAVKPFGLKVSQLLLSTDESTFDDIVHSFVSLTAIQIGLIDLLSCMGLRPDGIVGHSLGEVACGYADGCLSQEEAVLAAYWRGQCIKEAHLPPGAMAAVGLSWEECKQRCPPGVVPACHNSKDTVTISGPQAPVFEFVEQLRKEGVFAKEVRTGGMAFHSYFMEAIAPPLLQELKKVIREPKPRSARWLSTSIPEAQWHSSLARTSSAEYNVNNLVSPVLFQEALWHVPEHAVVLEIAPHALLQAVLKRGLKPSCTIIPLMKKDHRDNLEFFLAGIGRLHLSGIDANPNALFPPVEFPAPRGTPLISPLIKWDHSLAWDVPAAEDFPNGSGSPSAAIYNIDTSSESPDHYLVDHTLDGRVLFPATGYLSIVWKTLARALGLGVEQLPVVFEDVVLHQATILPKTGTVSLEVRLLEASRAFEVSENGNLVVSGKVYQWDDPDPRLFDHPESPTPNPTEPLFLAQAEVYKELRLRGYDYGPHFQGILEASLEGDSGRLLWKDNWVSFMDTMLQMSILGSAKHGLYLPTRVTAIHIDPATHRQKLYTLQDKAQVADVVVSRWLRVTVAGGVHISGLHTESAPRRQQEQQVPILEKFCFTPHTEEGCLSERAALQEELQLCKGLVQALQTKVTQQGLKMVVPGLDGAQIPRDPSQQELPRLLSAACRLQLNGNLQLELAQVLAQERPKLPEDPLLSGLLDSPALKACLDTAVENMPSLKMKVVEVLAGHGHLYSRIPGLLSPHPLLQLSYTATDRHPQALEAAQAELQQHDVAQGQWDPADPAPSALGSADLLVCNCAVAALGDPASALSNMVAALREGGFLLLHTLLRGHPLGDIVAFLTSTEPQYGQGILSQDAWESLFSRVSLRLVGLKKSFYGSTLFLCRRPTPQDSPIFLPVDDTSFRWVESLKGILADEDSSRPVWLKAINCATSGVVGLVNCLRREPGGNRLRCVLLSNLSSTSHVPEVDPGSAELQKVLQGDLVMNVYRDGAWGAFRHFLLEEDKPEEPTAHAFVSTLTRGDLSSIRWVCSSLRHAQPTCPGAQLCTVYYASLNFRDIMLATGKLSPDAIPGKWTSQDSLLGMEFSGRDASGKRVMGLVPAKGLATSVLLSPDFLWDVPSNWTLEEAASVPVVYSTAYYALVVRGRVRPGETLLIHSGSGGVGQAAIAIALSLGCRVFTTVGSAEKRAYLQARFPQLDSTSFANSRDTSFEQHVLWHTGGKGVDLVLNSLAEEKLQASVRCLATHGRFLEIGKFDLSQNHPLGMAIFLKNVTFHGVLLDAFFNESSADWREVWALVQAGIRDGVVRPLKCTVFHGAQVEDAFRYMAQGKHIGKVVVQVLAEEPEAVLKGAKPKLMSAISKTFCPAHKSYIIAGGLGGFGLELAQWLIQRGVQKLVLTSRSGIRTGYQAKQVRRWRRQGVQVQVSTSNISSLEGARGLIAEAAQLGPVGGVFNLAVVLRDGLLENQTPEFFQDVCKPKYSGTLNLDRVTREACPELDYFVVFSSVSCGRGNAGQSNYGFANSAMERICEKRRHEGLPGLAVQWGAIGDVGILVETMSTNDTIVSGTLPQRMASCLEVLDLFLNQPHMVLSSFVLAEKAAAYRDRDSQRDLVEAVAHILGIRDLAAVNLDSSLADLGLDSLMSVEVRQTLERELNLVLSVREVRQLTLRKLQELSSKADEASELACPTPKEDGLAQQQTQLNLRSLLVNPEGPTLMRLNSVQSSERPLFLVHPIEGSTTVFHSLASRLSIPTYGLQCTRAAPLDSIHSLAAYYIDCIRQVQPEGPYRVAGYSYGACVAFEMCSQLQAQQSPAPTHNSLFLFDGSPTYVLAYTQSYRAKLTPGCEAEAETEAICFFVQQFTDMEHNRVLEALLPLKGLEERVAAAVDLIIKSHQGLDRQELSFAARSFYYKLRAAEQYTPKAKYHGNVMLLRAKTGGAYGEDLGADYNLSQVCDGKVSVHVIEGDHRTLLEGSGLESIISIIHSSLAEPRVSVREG

Row | IC50 [8] | IC50 (Fatty acid synthase [9]) | IC50 (Fatty acid synthase [10]) | SMILES | AC50 [1] | EC50 (Beta-galactosidase) | EC50 (BJ [2]) | EC50 [3] | EC50 [4] | EC50 (BJ [5]) | EC50 (BJ [6]) | EC50 (Streptococcus) | IC50 [7]
1 | – | – | – | Oc1cccc2ccc(/C=C/c3ccccc3Cl)nc12 | 11.6 µM (active) | > 40 µM (inactive) | 28.5 µM (active) | 0.345 µM (active) | 32.6 µM (active) | > 150 µM (inconclusive) | 12.9 µM (active) | 1.3 µM (active) | 32.3 µM (not active)
2 | 6.26 µM (active) | 10 µM (active) | 7.42 µM (active) | O=C(CCCC(=O)Nc1cccc(Br)c1)N/N=C/c1cc([N+](=O)[O-])ccc1O | – | > 40 µM (inactive) | – | – | – | – | – | – | > 40 µM (not active)
